In patent US20220119354A1, “DIAMINO-SUBSTITUTED PYRIDINES AND PYRIMIDINES AS HERBICIDES” (FMC Corporation, priority 2019, published 2022):

Legend:
Format in all cases: in vivo
[1] = tested on: galium (catchweed bedstraw, Galium aparine); test: Test A postemergence, galium; conditions: 0 to 100 scale, 0 no effect, 100 complete control
Procedure, shortened: (§1)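 Ratings reflect visual comparison with untreated controls roughly 10 d after greenhouse application, 0 meaning no effect and 100 complete control. Treatment was by directed soil spray at planting or by spray onto one- to two-leaf plants in loam/sand pots.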

[2] = tested on: barnyardgrass (Echinochloa crus-galli); test: Test B flooded paddy test, barnyardgrass; conditions: Flood, 250 g ai/ha, applied to paddy water, 2-leaf stage, visual evaluation after 13 to 15 d
Procedure, shortened: (§2)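 Visual injury scores run from 0 (no effect) to 100 (complete control), assigned by comparison with controls 13 to 15 d after treatment. Treatment went into floodwater standing 3 cm over the soil of pots holding 2-leaf plants.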

[3] = tested on: kochia (Kochia scoparia); test: Test A postemergence, kochia; conditions: 0 to 100 scale, 0 no effect, 100 complete control
Procedure, shortened: as §1

[4] = tested on: pigweed (Amaranthus retroflexus); test: Test A preemergence, pigweed; conditions: 0 to 100 scale, 0 is no effect, 100 is complete control
Procedure, shortened: as §1

[5] = tested on: ragweed (common ragweed, Ambrosia elatior); test: Test A postemergence, ragweed; conditions: 0 to 100 scale, 0 no effect, 100 complete control
Procedure, shortened: as §1

[6] = tested on: ryegrass, Italian (Lolium multiflorum); test: Test A preemergence, Italian ryegrass; conditions: 0 to 100 scale, 0 is no effect, 100 is complete control
Procedure, shortened: as §1

[7] = tested on: ragweed (common ragweed, Ambrosia elatior); test: Test A preemergence, ragweed; conditions: 0 to 100 scale, 0 is no effect, 100 is complete control
Procedure, shortened: as §1

[8] = tested on: ryegrass, Italian (Lolium multiflorum); test: Test A postemergence, Italian ryegrass; conditions: 0 to 100 scale, 0 no effect, 100 complete control
Procedure, shortened: as §1

[9] = tested on: rice (Oryza sativa); test: Test B flooded paddy test, rice; conditions: Flood, 250 g ai/ha, applied to paddy water, 2-leaf stage, visual evaluation after 13 to 15 d
Procedure, shortened: as §2

[10] = tested on: ducksalad (Heteranthera limosa); test: Test B flooded paddy test, ducksalad; conditions: Flood, 250 g ai/ha, applied to paddy water, 2-leaf stage, visual evaluation after 13 to 15 d
Procedure, shortened: as §2

[11] = tested on: blackgrass (Alopecurus myosuroides); test: Test A postemergence, blackgrass; conditions: 0 to 100 scale, 0 no effect, 100 complete control
Procedure, shortened: as §1

[12] = tested on: kochia (Kochia scoparia); test: Test A preemergence, kochia; conditions: 0 to 100 scale, 0 is no effect, 100 is complete control
Procedure, shortened: as §1

[13] = tested on: barnyardgrass (Echinochloa crus-galli); test: Test A preemergence, barnyardgrass; conditions: 0 to 100 scale, 0 is no effect, 100 is complete control
Procedure, shortened: as §1

[14] = tested on: pigweed (Amaranthus retroflexus); test: Test A postemergence, pigweed; conditions: 0 to 100 scale, 0 no effect, 100 complete control
Procedure, shortened: as §1

[15] = tested on: foxtail, giant (Setaria faberii); test: Test A preemergence, giant foxtail; conditions: 0 to 100 scale, 0 is no effect, 100 is complete control
Procedure, shortened: as §1

[16] = tested on: wheat (Triticum aestivum); test: Test A postemergence, wheat; conditions: 0 to 100 scale, 0 no effect, 100 complete control
Procedure, shortened: as §1

[17] = tested on: corn (Zea mays); test: Test A postemergence, corn; conditions: 0 to 100 scale, 0 no effect, 100 complete control
Procedure, shortened: as §1

[18] = tested on: sedge, umbrella (small-flower umbrella sedge, Cyperus difformis); test: Test B flooded paddy test, umbrella sedge; conditions: Flood, 250 g ai/ha, applied to paddy water, 2-leaf stage, visual evaluation after 13 to 15 d
Procedure, shortened: as §2

[19] = tested on: barnyardgrass (Echinochloa crus-galli); test: Test A postemergence, barnyardgrass; conditions: 0 to 100 scale, 0 no effect, 100 complete control
Procedure, shortened: as §1

[20] = tested on: foxtail, giant (Setaria faberii); test: Test A postemergence, giant foxtail; conditions: 0 to 100 scale, 0 no effect, 100 complete control
Procedure, shortened: as §1

| SMILES | Plant response rating, Galium ([1]; 125 g ai/ha) | Plant response rating, Galium ([1]; 500 g ai/ha) | Plant response rating, Barnyardgrass (0 to 100 scale, 0 is no effect, 100 is complete control) [2] | Plant response rating, Kochia ([3]; 125 g ai/ha) | Plant response rating, Kochia ([3]; 500 g ai/ha) | Pigweed plant response rating ([4]; 125 g ai/ha) | Pigweed plant response rating ([4]; 500 g ai/ha) | Plant response rating, Ragweed ([5]; 125 g ai/ha) | Plant response rating, Ragweed ([5]; 500 g ai/ha) | Ryegrass, Italian plant response rating ([6]; 125 g ai/ha) | Ryegrass, Italian plant response rating ([6]; 500 g ai/ha) | Ragweed plant response rating ([7]; 125 g ai/ha) | Ragweed plant response rating ([7]; 500 g ai/ha) | Plant response rating, Ryegrass, Italian ([8]; 125 g ai/ha) | Plant response rating, Ryegrass, Italian ([8]; 500 g ai/ha) | Plant response rating, Rice (0 to 100 scale, 0 is no effect, 100 is complete control) [9] | Plant response rating, Ducksalad (0 to 100 scale, 0 is no effect, 100 is complete control) [10] | Plant response rating, Blackgrass ([11]; 125 g ai/ha) | Plant response rating, Blackgrass ([11]; 500 g ai/ha) | Kochia plant response rating ([12]; 125 g ai/ha) | further results |
| --- | --- | --- | --- | --- | --- | --- | --- | --- | --- | --- | --- | --- | --- | --- | --- | --- | --- | --- | --- | --- | --- |
| CC[C@H](Nc1ncc(C(F)(F)F)c(N)n1)c1cc2ccc(F)cc2o1 [Compound 64] | 0 | 30 | 0 | 0 | 30 | 0 | 0 | 0 | 20 | 0 | 0 | 0 | 0 | 0 | 0 | 0 | 0 | 0 | 0 | 0 | Kochia plant response rating ([12]; 500 g ai/ha): 0; Barnyardgrass plant response rating ([13]; 125 g ai/ha): 0; Barnyardgrass plant response rating ([13]; 500 g ai/ha): 0; Plant response rating, Pigweed ([14]; 125 g ai/ha): 20; Plant response rating, Pigweed ([14]; 500 g ai/ha): 60; Foxtail, Giant plant response rating ([15]; 125 g ai/ha): 0; Foxtail, Giant plant response rating ([15]; 500 g ai/ha): 0; Plant response rating, Wheat ([16]; 125 g ai/ha): 0; Plant response rating, Wheat ([16]; 500 g ai/ha): 0; Plant response rating, Corn ([17]; 125 g ai/ha): 0; Plant response rating, Corn ([17]; 500 g ai/ha): 0; Plant response rating, Sedge, Umbrella (0 to 100 scale, 0 is no effect, 100 is complete control) [18]: 0; Plant response rating, Barnyardgrass ([19]; 125 g ai/ha): 0; Plant response rating, Barnyardgrass ([19]; 500 g ai/ha): 20; Plant response rating, Foxtail, Giant ([20]; 125 g ai/ha): 0; Plant response rating, Foxtail, Giant ([20]; 500 g ai/ha): 0 |
| C[C@@H](Nc1nc(N)c(C(F)(F)F)c(C(F)(F)F)n1)c1cc2ccccc2o1 [Compound 65] | 0 | 0 | 0 | 0 | 60 | 0 | 0 | 0 | 0 | 0 | 0 | 0 | 40 | 0 | 0 | 0 | 0 | 0 | 0 | 0 | Kochia plant response rating ([12]; 500 g ai/ha): 0; Barnyardgrass plant response rating ([13]; 125 g ai/ha): 0; Barnyardgrass plant response rating ([13]; 500 g ai/ha): 0; Plant response rating, Pigweed ([14]; 125 g ai/ha): 0; Plant response rating, Pigweed ([14]; 500 g ai/ha): 30; Foxtail, Giant plant response rating ([15]; 125 g ai/ha): 0; Foxtail, Giant plant response rating ([15]; 500 g ai/ha): 0; Plant response rating, Wheat ([16]; 125 g ai/ha): 30; Plant response rating, Wheat ([16]; 500 g ai/ha): 30; Plant response rating, Corn ([17]; 125 g ai/ha): 0; Plant response rating, Corn ([17]; 500 g ai/ha): 0; Plant response rating, Sedge, Umbrella (0 to 100 scale, 0 is no effect, 100 is complete control) [18]: 0; Plant response rating, Barnyardgrass ([19]; 125 g ai/ha): 0; Plant response rating, Barnyardgrass ([19]; 500 g ai/ha): 0; Plant response rating, Foxtail, Giant ([20]; 125 g ai/ha): 0; Plant response rating, Foxtail, Giant ([20]; 500 g ai/ha): 0 |
| C[C@H](Nc1nc(N)c(C(F)(F)F)c(C(F)(F)F)n1)c1cc2ccccc2o1 [Compound 66] | 30 | 40 | 0 | 20 | 90 | 0 | 0 | 0 | 20 | 0 | 0 | 0 | 0 | 0 | 0 | 0 | 0 | 0 | 30 | 0 | Kochia plant response rating ([12]; 500 g ai/ha): 0; Barnyardgrass plant response rating ([13]; 125 g ai/ha): 0; Barnyardgrass plant response rating ([13]; 500 g ai/ha): 0; Plant response rating, Pigweed ([14]; 125 g ai/ha): 30; Plant response rating, Pigweed ([14]; 500 g ai/ha): 100; Foxtail, Giant plant response rating ([15]; 125 g ai/ha): 0; Foxtail, Giant plant response rating ([15]; 500 g ai/ha): 0; Plant response rating, Wheat ([16]; 125 g ai/ha): 0; Plant response rating, Wheat ([16]; 500 g ai/ha): 0; Plant response rating, Corn ([17]; 125 g ai/ha): 0; Plant response rating, Corn ([17]; 500 g ai/ha): 20; Plant response rating, Sedge, Umbrella (0 to 100 scale, 0 is no effect, 100 is complete control) [18]: 0; Plant response rating, Barnyardgrass ([19]; 125 g ai/ha): 0; Plant response rating, Barnyardgrass ([19]; 500 g ai/ha): 30; Plant response rating, Foxtail, Giant ([20]; 125 g ai/ha): 0; Plant response rating, Foxtail, Giant ([20]; 500 g ai/ha): 0 |
| C[C@@H](Nc1nc(N)c(C(F)(F)F)c(C(F)(F)F)n1)C1Cc2ccccc2C1 [Compound 67] | 20 | 40 | 0 | 50 | 70 | 30 | 90 | 0 | 0 | 0 | 0 | 0 | 0 | 0 | 0 | 0 | 0 | 0 | 0 | 0 | Kochia plant response rating ([12]; 500 g ai/ha): 90; Barnyardgrass plant response rating ([13]; 125 g ai/ha): 0; Barnyardgrass plant response rating ([13]; 500 g ai/ha): 0; Plant response rating, Pigweed ([14]; 125 g ai/ha): 20; Plant response rating, Pigweed ([14]; 500 g ai/ha): 60; Foxtail, Giant plant response rating ([15]; 125 g ai/ha): 0; Foxtail, Giant plant response rating ([15]; 500 g ai/ha): 0; Plant response rating, Wheat ([16]; 125 g ai/ha): 0; Plant response rating, Wheat ([16]; 500 g ai/ha): 0; Plant response rating, Corn ([17]; 125 g ai/ha): 0; Plant response rating, Corn ([17]; 500 g ai/ha): 0; Plant response rating, Sedge, Umbrella (0 to 100 scale, 0 is no effect, 100 is complete control) [18]: 0; Plant response rating, Barnyardgrass ([19]; 125 g ai/ha): 0; Plant response rating, Barnyardgrass ([19]; 500 g ai/ha): 0; Plant response rating, Foxtail, Giant ([20]; 125 g ai/ha): 0; Plant response rating, Foxtail, Giant ([20]; 500 g ai/ha): 0 |
